Numbers after ± are expanded uncertainties.
Conditions: for viscosity: 101.33 kPa, Cone and plate viscometry; for viscosity / surface tension liquid-gas: Liquid; for surface tension liquid-gas: 293 K; for Normal melting temperature: Crystal; for Normal melting temperature / Glass transition temperature: DTA

SMILES	viscosity (290 K) [mPa·s]	surface tension liquid-gas [mN/m]	viscosity (295 K) [mPa·s]	viscosity (300 K) [mPa·s]	viscosity (305 K) [mPa·s]	viscosity (310 K) [mPa·s]	viscosity (315 K) [mPa·s]	viscosity (320 K) [mPa·s]	viscosity (325 K) [mPa·s]	viscosity (330 K) [mPa·s]	viscosity (335 K) [mPa·s]	viscosity (340 K) [mPa·s]	viscosity (345 K) [mPa·s]	viscosity (350 K) [mPa·s]	viscosity (355 K) [mPa·s]	viscosity (360 K) [mPa·s]	viscosity (365 K) [mPa·s]	Normal melting temperature [°C]	Glass transition temperature [°C]
CCn1cc[n+](C)c1.N#CN=C=[N-] [1-ethyl-3-methylimidazolium dicyanamide]	24	64 ± 9	21	19	18	17	16	15	15	14	14	13	13	12	12	12	12	-18 ± 2	-96 ± 3
CCC[n+]1ccn(C)c1C.O=S(=O)([N-]S(=O)(=O)C(F)(F)F)C(F)(F)F	131 ± 10	41 ± 6	106 ± 10	85 ± 10	69 ± 10	58 ± 10	49 ± 10	42 ± 10	37 ± 10	33 ± 10	29 ± 10	27 ± 10	24 ± 10	23 ± 10	21 ± 10	20	19	8 ± 2	-109 ± 20
CCn1cc[n+](C)c1.F[B-](F)(F)F [1-ethyl-3-methylimidazolium tetrafluoroborate]	46 ± 10	53 ± 7	41 ± 10	32 ± 10	31 ± 10	27 ± 10	24 ± 10	22 ± 10	21 ± 10	19	18	18	16	15	15	15	13		
CCCC[N+]1(C)CCCC1.FC(F)(F)C(F)(F)[P-](F)(F)(F)(C(F)(F)C(F)(F)F)C(F)(F)C(F)(F)F	355 ± 17	38 ± 5	272 ± 14	209 ± 12	163 ± 11	129 ± 10	105 ± 10	87 ± 10	72 ± 10	62 ± 10	53 ± 10	47 ± 10	41 ± 10	37 ± 10	34 ± 10	30 ± 10	28 ± 10	4 ± 2	-116 ± 3

— the NIST ThermoML archive (doi:10.1021/je900405j)
